Assay results reported in ChEMBL document CHEMBL4828725 (Eur J Med Chem, 2021).

Columns and labels:
Beta-glucuronidase = Beta-glucuronidase (Escherichia coli (strain K12), UniProt P05804); assay: Inhibition of Escherichia coli beta-glucuronidase using p-nitrophenyl glycoside as substrate assessed as release of p-nitrophenol measured by spectrometric assay
Aspergillus niger = assay: Inhibition of Aspergillus niger amyloglucosidase using p-nitrophenyl glycoside as substrate assessed as release of p-nitrophenol at 1000 uM measured by spectrometric assay relative to control
[1] = biological target: Beta-glucuronidase (Escherichia coli (strain K12)) (UniProt P05804); assay: Inhibition of Escherichia coli beta-glucuronidase using p-nitrophenyl glycoside as substrate assessed as release of p-nitrophenol at 1000 uM measured by spectrometric assay relative to control
[2] = Inhibition of rat intestinal maltase using maltose as substrate assessed as release of D-glucose measured by spectrometric assay
[3] = Inhibition of rice alpha-glucosidase using p-nitrophenyl glycoside as substrate assessed as release of p-nitrophenol measured by spectrometric assay; set-up: species or system Oryza sativa; details: read-out: IC50
[4] = biological target: T1, Sucrase-isomaltase, intestinal (Rattus norvegicus, UniProt P23739); assay: Inhibition of rat intestinal isomaltase using p-nitrophenyl glycoside as substrate assessed as release of p-nitrophenol measured by spectrometric assay
[5] = Inhibition of bovine liver beta-galactosidase using p-nitrophenyl glycoside as substrate assessed as release of p-nitrophenol measured by spectrometric assay; assay type: tissue-based, Bos taurus
Penicillium decumbens = assay: Inhibition of Penicillium decumbens alpha-L-rhamnosidase using p-nitrophenyl glycoside as substrate assessed as release of p-nitrophenol at 1000 uM measured by spectrometric assay relative to control
[6] = Inhibition of snail beta-mannosidase using p-nitrophenyl glycoside as substrate assessed as release of p-nitrophenol measured by spectrometric assay; set-up: species or system Helix pomatia
[7] = biological target: T1, Sucrase-isomaltase, intestinal; assay: Inhibition of rat intestinal sucrase using p-nitrophenyl glycoside as substrate assessed as release of p-nitrophenol measured by spectrometric assay; details: read-out: IC50
Alpha-galactosidase = Alpha-galactosidase (Coffea arabica, UniProt Q42656); assay: Inhibition of coffee beans alpha-galactosidase using p-nitrophenyl glycoside as substrate assessed as release of p-nitrophenol measured by spectrometric assay
[8] = biological target: T2, Tissue alpha-L-fucosidase (Bos taurus) (UniProt Q2KIM0); assay: Inhibition of bovine kidney alpha-L-fucosidase using p-nitrophenyl glycoside as substrate assessed as release of p-nitrophenol at 1000 uM measured by spectrometric assay relative to control; assay type: tissue-based
T2 sequence (whole entry): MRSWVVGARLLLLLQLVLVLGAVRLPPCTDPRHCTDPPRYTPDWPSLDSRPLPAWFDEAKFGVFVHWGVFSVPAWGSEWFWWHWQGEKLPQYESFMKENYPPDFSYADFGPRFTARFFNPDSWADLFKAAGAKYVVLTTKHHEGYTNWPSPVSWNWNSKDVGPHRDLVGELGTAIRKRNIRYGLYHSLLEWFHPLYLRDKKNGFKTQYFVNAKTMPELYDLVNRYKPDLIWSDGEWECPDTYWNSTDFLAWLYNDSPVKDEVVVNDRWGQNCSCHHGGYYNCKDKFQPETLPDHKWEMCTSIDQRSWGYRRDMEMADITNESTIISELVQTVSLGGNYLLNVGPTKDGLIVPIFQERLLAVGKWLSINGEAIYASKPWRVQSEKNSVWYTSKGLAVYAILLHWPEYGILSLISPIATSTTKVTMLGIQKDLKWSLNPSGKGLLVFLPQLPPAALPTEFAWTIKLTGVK

[9] = Inhibition of porcine kidney alpha-trehalase using p-nitrophenyl glycoside as substrate assessed as release of p-nitrophenol measured by spectrometric assay; set-up: species or system Sus scrofa
[10] = Inhibition of jack bean alpha-mannosidase using p-nitrophenyl glycoside as substrate assessed as release of p-nitrophenol measured by spectrometric assay; set-up: species or system Canavalia ensiformis
[11] = Inhibition of Penicillium decumbens alpha-L-rhamnosidase using p-nitrophenyl glycoside as substrate assessed as release of p-nitrophenol measured by spectrometric assay
Bos taurus [12] = species: Bos taurus; assay: Inhibition of bovine liver beta-galactosidase using p-nitrophenyl glycoside as substrate assessed as release of p-nitrophenol at 1000 uM measured by spectrometric assay relative to control
[13] = biological target: T3, Tissue alpha-L-fucosidase (Bos taurus, UniProt Q2KIM0); assay: Inhibition of bovine kidney alpha-L-fucosidase using p-nitrophenyl glycoside as substrate assessed as release of p-nitrophenol measured by spectrometric assay
T3 sequence (Q2KIM0 whole entry): T2 sequence (whole entry)

[14] = Inhibition of almond beta-glucosidase using p-nitrophenyl glycoside as substrate assessed as release of p-nitrophenol measured by spectrometric assay; set-up: species or system Prunus dulcis
[15] = biological target: Alpha-galactosidase (Coffea arabica) (UniProt Q42656); assay: Inhibition of coffee beans alpha-galactosidase using p-nitrophenyl glycoside as substrate assessed as release of p-nitrophenol at 1000 uM measured by spectrometric assay relative to control
Prunus dulcis = assay: Inhibition of almond beta-glucosidase using p-nitrophenyl glycoside as substrate assessed as release of p-nitrophenol at 1000 uM measured by spectrometric assay relative to control
Helix pomatia = assay: Inhibition of snail beta-mannosidase using p-nitrophenyl glycoside as substrate assessed as release of p-nitrophenol at 1000 uM measured by spectrometric assay relative to control
[16] = Inhibition of bovine liver beta-glucosidase using p-nitrophenyl glycoside as substrate assessed as release of p-nitrophenol measured by spectrometric assay; set-up: species or system Bos taurus
[17] = biological target: T4, Alpha-mannosidase (Canavalia ensiformis) (UniProt C0HJB3); assay: Inhibition of jack bean alpha-mannosidase using p-nitrophenyl glycoside as substrate assessed as release of p-nitrophenol at 1000 uM measured by spectrometric assay relative to control
T4 sequence (whole entry): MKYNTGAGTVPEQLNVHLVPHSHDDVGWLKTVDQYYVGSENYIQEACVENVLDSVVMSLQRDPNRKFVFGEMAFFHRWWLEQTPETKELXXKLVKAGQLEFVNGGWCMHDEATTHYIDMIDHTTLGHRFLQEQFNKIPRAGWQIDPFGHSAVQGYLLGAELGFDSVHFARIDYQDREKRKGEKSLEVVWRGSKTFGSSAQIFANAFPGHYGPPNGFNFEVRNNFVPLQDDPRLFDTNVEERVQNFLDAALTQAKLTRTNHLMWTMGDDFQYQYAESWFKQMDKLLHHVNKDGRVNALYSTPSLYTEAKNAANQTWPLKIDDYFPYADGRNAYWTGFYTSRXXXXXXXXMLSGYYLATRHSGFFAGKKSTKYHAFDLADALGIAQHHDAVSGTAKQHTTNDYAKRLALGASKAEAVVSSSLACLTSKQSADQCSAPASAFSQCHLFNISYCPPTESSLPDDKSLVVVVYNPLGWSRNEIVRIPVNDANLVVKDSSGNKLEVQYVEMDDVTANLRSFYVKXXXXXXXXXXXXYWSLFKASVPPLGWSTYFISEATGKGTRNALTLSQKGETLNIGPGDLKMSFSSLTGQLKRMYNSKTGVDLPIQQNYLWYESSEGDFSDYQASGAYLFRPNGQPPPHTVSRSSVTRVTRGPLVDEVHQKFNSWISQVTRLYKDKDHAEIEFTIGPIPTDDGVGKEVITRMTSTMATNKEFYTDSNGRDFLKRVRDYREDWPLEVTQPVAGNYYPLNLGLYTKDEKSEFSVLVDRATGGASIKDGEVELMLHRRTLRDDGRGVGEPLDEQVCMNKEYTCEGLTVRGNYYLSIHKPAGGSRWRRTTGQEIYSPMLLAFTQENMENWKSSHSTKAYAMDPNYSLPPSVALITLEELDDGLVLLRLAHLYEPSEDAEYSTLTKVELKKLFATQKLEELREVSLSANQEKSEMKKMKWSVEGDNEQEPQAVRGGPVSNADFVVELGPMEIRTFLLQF

Bos taurus [18] = species: Bos taurus; assay: Inhibition of bovine liver beta-glucosidase using p-nitrophenyl glycoside as substrate assessed as release of p-nitrophenol at 1000 uM measured by spectrometric assay relative to control; assay type: tissue-based
[19] = Inhibition of Aspergillus niger amyloglucosidase using p-nitrophenyl glycoside as substrate assessed as release of p-nitrophenol measured by spectrometric assay
Sus scrofa = species: Sus scrofa; assay: Inhibition of porcine kidney alpha-trehalase using p-nitrophenyl glycoside as substrate assessed as release of p-nitrophenol at 1000 uM measured by spectrometric assay relative to control

Sequence of Alpha-galactosidase (Q42656 whole entry): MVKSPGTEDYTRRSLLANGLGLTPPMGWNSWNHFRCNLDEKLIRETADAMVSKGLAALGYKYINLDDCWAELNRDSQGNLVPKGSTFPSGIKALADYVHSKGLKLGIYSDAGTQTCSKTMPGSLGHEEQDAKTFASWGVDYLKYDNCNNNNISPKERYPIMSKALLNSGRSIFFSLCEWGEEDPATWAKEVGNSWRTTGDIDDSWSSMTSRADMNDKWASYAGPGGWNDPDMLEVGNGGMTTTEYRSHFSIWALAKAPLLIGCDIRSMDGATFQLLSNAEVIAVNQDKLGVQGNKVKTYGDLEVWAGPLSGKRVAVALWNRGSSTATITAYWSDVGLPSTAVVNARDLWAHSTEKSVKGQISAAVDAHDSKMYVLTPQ
Sequence of Alpha-galactosidase (Coffea arabica) (Q42656 16-378 limits assumed): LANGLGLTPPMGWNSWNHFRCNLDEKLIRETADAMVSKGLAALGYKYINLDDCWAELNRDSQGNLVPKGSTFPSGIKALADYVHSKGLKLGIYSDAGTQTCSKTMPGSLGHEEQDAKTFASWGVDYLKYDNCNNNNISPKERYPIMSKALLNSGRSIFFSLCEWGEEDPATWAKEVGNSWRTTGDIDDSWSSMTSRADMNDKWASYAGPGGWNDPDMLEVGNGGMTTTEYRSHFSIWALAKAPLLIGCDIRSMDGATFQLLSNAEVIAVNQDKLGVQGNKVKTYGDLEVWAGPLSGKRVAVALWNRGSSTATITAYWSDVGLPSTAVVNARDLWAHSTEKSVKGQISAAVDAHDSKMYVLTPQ
Sequence of Beta-glucuronidase (Escherichia coli (strain K12)) (P05804 whole entry, looked up): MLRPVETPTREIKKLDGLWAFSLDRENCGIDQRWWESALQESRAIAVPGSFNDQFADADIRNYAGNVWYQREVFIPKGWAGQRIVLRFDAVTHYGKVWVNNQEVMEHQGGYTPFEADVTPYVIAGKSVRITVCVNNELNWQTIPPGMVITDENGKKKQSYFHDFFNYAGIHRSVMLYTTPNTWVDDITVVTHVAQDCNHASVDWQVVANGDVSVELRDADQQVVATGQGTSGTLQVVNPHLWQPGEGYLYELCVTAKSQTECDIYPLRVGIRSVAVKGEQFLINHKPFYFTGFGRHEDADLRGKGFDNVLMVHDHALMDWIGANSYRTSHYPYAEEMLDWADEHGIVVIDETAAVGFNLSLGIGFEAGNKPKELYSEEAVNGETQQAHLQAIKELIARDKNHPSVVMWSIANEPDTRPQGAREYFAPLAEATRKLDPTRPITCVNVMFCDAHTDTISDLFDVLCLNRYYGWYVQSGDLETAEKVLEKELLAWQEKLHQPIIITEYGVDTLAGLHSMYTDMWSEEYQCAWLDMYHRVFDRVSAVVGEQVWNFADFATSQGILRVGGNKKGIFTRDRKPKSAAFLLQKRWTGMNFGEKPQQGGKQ
Sequence of Beta-glucuronidase (P05804 whole entry): as the sequence (P05804 whole entry, looked up) above
T1 sequence (P23739 1-1013 limits assumed): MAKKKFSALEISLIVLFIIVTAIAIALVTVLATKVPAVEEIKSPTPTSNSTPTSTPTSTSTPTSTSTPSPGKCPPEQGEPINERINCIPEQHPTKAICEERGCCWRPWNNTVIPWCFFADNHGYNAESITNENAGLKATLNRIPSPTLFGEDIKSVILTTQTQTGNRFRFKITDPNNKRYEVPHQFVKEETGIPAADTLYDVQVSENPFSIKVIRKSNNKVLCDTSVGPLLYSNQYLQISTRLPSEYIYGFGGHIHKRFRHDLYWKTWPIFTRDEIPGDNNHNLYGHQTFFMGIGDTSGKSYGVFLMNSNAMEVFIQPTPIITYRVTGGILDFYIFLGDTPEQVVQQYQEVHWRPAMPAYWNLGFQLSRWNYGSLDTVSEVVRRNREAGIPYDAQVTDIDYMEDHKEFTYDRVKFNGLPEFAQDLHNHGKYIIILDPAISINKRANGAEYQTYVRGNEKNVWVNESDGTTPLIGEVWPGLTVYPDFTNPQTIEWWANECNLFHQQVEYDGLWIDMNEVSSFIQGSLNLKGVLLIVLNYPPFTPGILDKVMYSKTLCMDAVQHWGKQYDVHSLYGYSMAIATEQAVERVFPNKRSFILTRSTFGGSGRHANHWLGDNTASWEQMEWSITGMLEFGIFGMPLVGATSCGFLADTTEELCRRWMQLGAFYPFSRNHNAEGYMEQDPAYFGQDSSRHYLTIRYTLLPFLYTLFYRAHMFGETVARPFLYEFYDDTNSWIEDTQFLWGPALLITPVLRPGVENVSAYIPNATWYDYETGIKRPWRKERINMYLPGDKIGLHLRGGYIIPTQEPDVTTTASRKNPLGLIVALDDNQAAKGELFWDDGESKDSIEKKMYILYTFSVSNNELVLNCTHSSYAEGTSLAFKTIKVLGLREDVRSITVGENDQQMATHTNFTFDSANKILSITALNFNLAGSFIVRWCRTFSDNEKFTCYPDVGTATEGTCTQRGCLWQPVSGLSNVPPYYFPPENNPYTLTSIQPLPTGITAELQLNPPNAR
T1 sequence (P23739 1014-1841 limits assumed): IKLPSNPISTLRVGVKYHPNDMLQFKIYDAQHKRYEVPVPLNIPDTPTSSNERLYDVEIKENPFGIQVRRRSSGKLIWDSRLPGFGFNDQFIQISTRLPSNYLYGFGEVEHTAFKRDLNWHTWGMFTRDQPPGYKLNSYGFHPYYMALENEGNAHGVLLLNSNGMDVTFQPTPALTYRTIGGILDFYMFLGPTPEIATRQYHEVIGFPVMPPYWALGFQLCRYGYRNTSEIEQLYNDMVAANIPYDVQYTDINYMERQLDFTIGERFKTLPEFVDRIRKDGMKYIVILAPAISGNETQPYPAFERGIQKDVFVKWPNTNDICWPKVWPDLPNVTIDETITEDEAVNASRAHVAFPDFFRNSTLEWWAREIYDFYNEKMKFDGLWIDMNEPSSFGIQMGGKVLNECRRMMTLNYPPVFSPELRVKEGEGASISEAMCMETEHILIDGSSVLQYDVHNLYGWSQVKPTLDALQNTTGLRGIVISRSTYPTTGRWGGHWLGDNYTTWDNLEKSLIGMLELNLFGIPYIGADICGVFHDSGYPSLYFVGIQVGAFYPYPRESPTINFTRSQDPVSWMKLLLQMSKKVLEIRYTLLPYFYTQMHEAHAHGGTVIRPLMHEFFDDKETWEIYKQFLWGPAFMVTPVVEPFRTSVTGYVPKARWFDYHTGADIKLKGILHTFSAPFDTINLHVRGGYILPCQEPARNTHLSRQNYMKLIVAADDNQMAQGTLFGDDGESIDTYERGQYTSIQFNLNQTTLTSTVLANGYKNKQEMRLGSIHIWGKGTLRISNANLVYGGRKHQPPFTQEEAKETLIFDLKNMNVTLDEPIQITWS

Row | SMILES | IC50 (Beta-glucuronidase) | inhibition (Aspergillus niger) | inhibition [1] | IC50 [2] | IC50 [3] | IC50 ([4]; read-out: IC50) | inhibition (Penicillium decumbens) | IC50 [6] | IC50 [7] | inhibition [8] | IC50 [10] | IC50 [11] | IC50 [13] | IC50 [14] | inhibition (Prunus dulcis) | inhibition (Helix pomatia) | inhibition [17] | IC50 [19] | inhibition (Sus scrofa) | IC50 [9] | further results
1 | CC[C@]1(CO)NC[C@H](O)[C@@H](O)[C@@H]1O.Cl | Not Active | 0% | 3.6% | 0.11 µM | 0.097 µM | 1.2 µM | 0% | Not Active | 0.1 µM | 2.1% | Not Active | Not Active | Not Active | Not Active | 5.6% | 1.1% | 1.6% | Not Active |  |  | IC50 [5]: Not Active; IC50 (Alpha-galactosidase): Not Active; IC50 ([9]; read-out: IC50): 94 µM; inhibition (Bos taurus [12]): 18.4%; inhibition [15]: 30.1%; IC50 [16]: Not Active; inhibition (Bos taurus [18]): 15.3%
2 | CCCCCC[C@]1(CO)NC[C@H](O)[C@@H](O)[C@@H]1O.Cl | Not Active | 5.4% | 21.1% | 0.034 µM | 0.037 µM | 0.55 µM | 0.6% | Not Active | 0.14 µM | 4.3% | Not Active | Not Active | Not Active | Not Active | 11.3% | 0% | 5.5% | Not Active | 11.7% | Not Active | IC50 [5]: Not Active; IC50 (Alpha-galactosidase; read-out: IC50): 76 µM; inhibition (Bos taurus [12]): 15.5%; IC50 [16]: Not Active; inhibition (Bos taurus [18]): 10.8%
3 | CCCCCCCC[C@]1(CO)NC[C@H](O)[C@@H](O)[C@@H]1O.Cl | Not Active | 5.9% | 12% | 0.019 µM | 0.029 µM | 0.34 µM | 5.7% | Not Active | 0.12 µM | 6.6% | Not Active | Not Active | Not Active | Not Active | 15.7% | 0.5% | 4.6% | Not Active | 23% | Not Active | IC50 [5]: Not Active; IC50 (Alpha-galactosidase; read-out: IC50): 98 µM; inhibition (Bos taurus [12]): 35.2%; IC50 [16]: Not Active; inhibition (Bos taurus [18]): 14.3%
4 | CCCCCCCCC[C@@]1(CO)NC[C@H](O)[C@@H](O)[C@@H]1O.Cl | Not Active | 2.7% | 38.1% | 9.5 µM | 3.3 µM | 122 µM | 3.5% | Not Active | 42 µM | 1.5% | Not Active | Not Active | Not Active | Not Active | 32.9% | 0.6% | 0% | Not Active | 0% | Not Active | IC50 ([5]; read-out: IC50): 29 µM; IC50 (Alpha-galactosidase): Not Active; inhibition [15]: 15.3%; IC50 ([16]; read-out: IC50): 213 µM
5 | CCCC[C@@]1(CO)NC[C@H](O)[C@@H](O)[C@@H]1O.Cl | Not Active | 3.8% |  | 110 µM | 85 µM |  | 22.8% | Not Active | 242 µM | 16% | Not Active | Not Active | Not Active | Not Active | 6.2% | 3% | 4.4% | Not Active | 0% | Not Active | IC50 [4]: Not Active; IC50 ([5]; read-out: IC50): 52 µM; IC50 (Alpha-galactosidase): Not Active; inhibition [15]: 12.5%; IC50 ([16]; read-out: IC50): 149 µM
6 | CCCCCCCCCCCC[C@]1(CO)NC[C@H](O)[C@@H](O)[C@@H]1O.Cl | Not Active | 10.7% | 16.5% | 0.07 µM | 0.024 µM | 7.8 µM | 0.3% | Not Active | 1.2 µM | 16% | Not Active | Not Active | Not Active | Not Active | 10% | 1.5% | 7.9% | Not Active | 4.8% | Not Active | IC50 [5]: Not Active; IC50 (Alpha-galactosidase; read-out: IC50): 10 µM; inhibition (Bos taurus [12]): 48.4%; IC50 [16]: Not Active; inhibition (Bos taurus [18]): 25%
